US20260000608A1, “COMPOSITIONS AND METHODS FOR ADMINISTERING ANESTHETICS” (Children's Medical Center Corporation, priority 2018, published 2026)
Where “and” joins values, the source holds several entries; their conditions need not be identical. Equal values may be shown once. One block for each compound: values may come before it.

Tests used:
HUVECs = assay: Cytotoxicity in HUVECs (MTS cell viability); assay type: cell-based, human; conditions: 0.1 mg/mL free bupivacaine, 24 hours
Description: HUVECs were purchased from ATCC. The cell line was authenticated by the suppliers and passaged in the laboratory for fewer than 3 months after resuscitation. HUVECs were maintained in a 37° C./5% CO2 humidified chamber in Endothelial Cell Growth Medium (EBM-2) (Lonza, USA). When the cells grew to 80% confluence, the cell studies were performed. For cytotoxicity studies, HUVECs were seeded in 96-well plates and incubated with various drug formulations (free bupivacaine, micellar composition comprising bupivacaine, and liposomal composition comprising bupivacaine) for 24 hours. Cell viability was evaluated by CellTiter 96® AQueous One Solution Cell Proliferation Assay (MTS) (Promega, USA) according to suppliers' instructions. The absorbance at 490 nm wavelength was detected with a microplate reader ([…]x, BioTek®, USA). Untreated cells served as a control. Results were shown as the average cell viability [(OD treat OD blank)/(OD control OD blank)×100%] of quintuplicate wells. […] The cells were washed three times with 3 mL of fresh medium and the washing medium was added to the collected incubated medium, the final volume of the collected medium was adjusted to 12 mL and the fluorescence intensity of each medium was measured by fluorescence spectrophotometer (Cary Eclipse, Agilent, USA). […]

rat tail [1] = assay: Rat tail IVRA (Bier block) assessed by tail-flick test; assay type: in vivo
Description: In a typical IVRA procedures, the rats were anesthetized with isoflurane-oxygen. The tail vein was cannulated with a 24-gauge IV catheter, which was placed in the distal third of the tail and filled with heparinized saline (BD, USA). The tail was exsanguinated by wrapping it with a rubber strip. An elastic tourniquet was tightly applied proximal to the rubber strip and then the rubber strip was removed. Next, 0.4 mL of formulation was injected by a microinjector (1 mL) through the IV catheter. After releasing the tourniquet, animals were allowed to recover from the isoflurane anesthesia, then rat tail IVRA was assessed by the tail-flick test. In brief, tail-flick latency (the time from onset of radiant heat to tail-flick response) was measured by a tail-flick analgesia meter (Tail-Flick Unit 37370; Ugo Basile, Comerio, Italy). The intensity of radiant heat (parameter of the analgesia meter) was set at 90%, and cut-off time of radiant heat was set at 18 seconds. The testing area was between the injection site in the distal tail and the tourniquet, in the proximal tail. Baseline tail-flick latency was measured in untreated and saline injected rats. All evaluations were performed by two trained observers blinded to group allocation.

[2] = Bupivacaine concentration in the blood after IVRA and tourniquet release; assay type: in vivo, rat
Description: The following were administered as IVRA: saline, 0.5% free bupivacaine, 0.1% free bupivacaine, micellar composition comprising bupivacaine (0.1% bupivacaine), and liposomal composition comprising bupivacaine (0.1% bupivacaine). After releasing the tourniquet, 200 microliters of blood was collected (through the tail vein opposite from that through formulations were injected) at 15 minutes, 30 minutes, 45 minutes, 90 minutes, 150 minutes, 240 minutes, 480 minutes and 720 minutes. Blood was put in ethylenediaminetetraacetic acid (EDTA) containing blood collection tubes (BD, USA). The samples were stored in ice water for 10-15 minutes and then centrifuged at 3,000 rpm at 4° C. for 5 minutes to obtain plasma. The hemocytes were lysed by ultrasonication (Sonics & Materials, Inc., USA) at 4° C. for 2 minutes and centrifuged at 13,000 rpm at 4° C. for 5 minutes to obtain a supernatant. The supernatant was combined with plasma. Next, 50 microliters of the blood samples were mixed with 10 microliters of sodium hydroxide aqueous solution (1 M) and 0.3 mL ethyl ether in an ice-water bath. The mixtures were vigorously vortexed for 2 minutes and centrifuged at 3,000 rpm for […] at room temperature. The organic phase was transferred to a 4 mL glass vial and evaporated to dryness in a 4° C. ice-water bath under vacuum. The residue was dissolved in 200 microliters of water-methanol (50/50, v/v), and was mechanically agitated for 30 seconds. The samples were transferred to clean polypropylene tubes and centrifuged at 13,000 rpm for 10 minutes. The supernatant was analyzed by HPLC.

[3] = test system: rat tails and organs (heart, liver, spleen, lung, kidney); assay: Histology (H&E) of tails and organs 24 hours after IVRA; assay type: in vivo; conditions: 0.5% bupivacaine
Description: 24 hours after the IVRA procedures, rats that had been administered saline, free bupivacaine (0.5% bupivacaine), micellar composition comprising bupivacaine (0.1% bupivacaine), and liposomal composition comprising bupivacaine (0.1% bupivacaine) were euthanized. Tails and organs (e.g., heart, liver, spleen, lung, and kidney) were harvested and fixed with 10% formalin. The organs were processed by standard procedures to produce hematoxylin and eosin-stained (H&E stained) slides. The tails were decalcified to remove bones before H&B staining procedures. Similar regions were examined in each organ from different groups. Tissues from healthy rats (no treatment) were used as negative controls.

rat tail blood vessels = assay: Distribution within the tail: frozen sections, anti-CD34 staining, CLSM; assay type: in vivo
Description: The slices were imaged by CLSM. The intensity of the Rhd fluorescence was calculated from images using ImageJ.

rat tail [4] = assay: In vivo imaging (IVIS) of Rhd fluorescence retention in rat tail after tourniquet release; conditions: one hour after tourniquet release, n=4
Description: For in vivo imaging, the same IVRA procedures were performed, and 0.4 mL of: (i) free Rhd; Rhd-labeled micellar composition comprising bupivacaine; and Rhd-labeled liposomal composition comprising bupivacaine was injected into the tails of rats (n=4) after fastening the tourniquet. Images were taken with an In Vivo Imaging System (PerkinElmer Inc., USA) before releasing the tourniquet, and the signal intensity in those images was considered to be 100%. […] The Rhd signals of each composition were quantified at each time point, and normalized to the intensity before tourniquet release.

[5] = 0.4 mL of 0.5% bupivacaine by IVRA, tourniquet time 5 min
[6] = 0.4 mL of 0.5% bupivacaine by IVRA, tourniquet time 10 min
[7] = 0.4 mL of 0.5% bupivacaine by IVRA, tourniquet time 15 min
[8] = 0.4 mL of 0.5% bupivacaine by IVRA, tourniquet time 20 min
[9] = 0.4 mL of 0.5% bupivacaine by IVRA, tourniquet time 30 min
[10] = bupivacaine concentration 0.1% w/v, 0.4 mL, 15 minute tourniquet
[11] = bupivacaine concentration 0.5% w/v, 0.4 mL, 15 minute tourniquet

Compound: CCCCN1CCCCC1C(=O)Nc1c(C)cccc1C (centres unmarked) [Free bupivacaine, bupivacaine]
cells alive (HUVECs): 22.1+/−2.4% | anesthetic effect (tail-flick) (rat tail [1]; 0.1% bupivacaine, comparable to saline): did not achieve any anesthetic effect | Anesthesia Duration (rat tail [1]; [5]): 0 h | Successful Anesthesia (%) (rat tail [1]; [5]): 0% | Anesthesia Duration (rat tail [1]; [6]): 0.3 ± 0.5 h | Successful Anesthesia (%) (rat tail [1]; [6]): 25% | Anesthesia Duration (rat tail [1]; [7]): 2 h and 2.0 ± 0.6 h | Successful Anesthesia (%) (rat tail [1]; [7]): 100% | animals with anesthesia (rat tail [1]; 0.4 mL of 0.5% bupivacaine by IVRA, tourniquet time 15 minutes): four of four | Anesthesia Duration (rat tail [1]; [8]): 1.9 ± 0.5 h | Successful Anesthesia (%) (rat tail [1]; [8]): 100% | Anesthesia Duration (rat tail [1]; [9]): 2.0 ± 0.5 h | Successful Anesthesia (%) (rat tail [1]; [9]): 100% | Anesthesia Duration (rat tail [1]; [10]): 0 h | Successful Anesthesia (%) (rat tail [1]; [10]): 0% | Anesthesia Duration (rat tail [1]; [11]): 2.0 ± 0.6 h | Successful Anesthesia (%) (rat tail [1]; [11]): 100% | Anesthesia Duration (rat tail [1]; bupivacaine concentration 0.5% w/v, 0.4 mL, 15 minute tourniquet, listed as free bupivacaine): 2.0 ± 0.6 h | mortality ([2]; 0.5% free bupivacaine by IVRA, rats): none died | clinical observation after tourniquet release ([2]; rat, in vivo): dyspnea | time of peak bupivacaine concentration in blood ([2]; rat, in vivo): 45 min | histology of heart, liver, spleen, lung and kidney (H&E) [3]: no histological abnormalities | tail myotoxicity (H&E) [3]: no myotoxicity

Rhd signal in tail sections (fluorescence microscopy) (rat tail blood vessels; four hours after release of the tourniquet): much weaker than at 15 minutes | fluorescence intensity in the rat tail, % of intensity before tourniquet release (rat tail [4]): ~50%
Compound: rhodamine [free Rhd]
Rhd signal in tail sections (fluorescence microscopy) (rat tail blood vessels; 15 minutes after release of the tourniquet): very strong Rhd signals co-localized with blood vessel
